What is called IC50 is the concentration at which inhibition is half-maximal. A higher IC50 goes with lower potency. One may read the inhibition as the share of the control response that was lost under treatment.

One data set concerns DH5α E. coli. The experiment in a line: In vivo recovery test: Pb detoxification of poisoned bacteria, colony counting. The data set is classed as cell-based. The following applies: for Recovery DH5α (%): highest concentration 120 mM (10 equiv.), Pb(NO3)2 12 mM, vs poisoned untreated cells, mean; for detoxification ability in poisoned E. coli (in words): compared to the benchmark compounds, FIG. 2a. As for the experimental part:
(§1) Desalted peptides were then assessed for their ability to detoxify Pb (FIGS. 2a-d). The inventors designed two assays for rapid and reliable screening of potential CAs both in vivo on bacteria and then in vitro on human cell culture. Briefly, DH5a or HT-29 cells were first exposed to Pb(NO3)2 slightly below the minimal inhibitory concentration and then treated with various concentrations of the investigated CA, ranging from 0.1 to 10 equivalents. The viability of the cells was determined by colony counting or by crystal violet (Feoktistova et al, 2016), for the bacteria and the human cells, respectively, and was compared to poisoned cells that were not treated with any CA as the negative control. […] On the other hand, testing the compounds on human cells cannot be performed with insoluble compounds but is more relevant for medicinal purposes.
HRMS (ESI) m/z calculated for C16H26N4O4SNa^+ [M+Na]^+ 427.14442; found: 427.14447 In vivo recovery tests A single colony of DH5a E. coli WT cells was grown overnight at 37° C. and 220 rpm in Tris Minimal Medium (TMM, pH 6.0; 5 mL) without antibiotics. The culture was then diluted to an OD600 of 0.03 with additional TMM to a total volume of 5 mL, and its OD600 was monitored. Upon cell density of 0.25 (which was achieved after 3-5 h), 1 mL of the culture was transferred into a cell culture tube and was labeled as the positive control. To additional 3 mL of the culture, 36 μL of Pb(NO3)2 1 M were added (final concentration of 12 mM). Both cultures were shaken at 37° C. and 220 rpm for an additional 5 h.
Aqueous stock solutions of each CA were plated on freshly prepared agar-LB plates such that the final concentration of each compound is equal to 0.5, 1, 2, 5, and 10 equivalents, compared to the amount of Pb(NO3)2 in 50 μL pre-toxified culture. The stock solutions were prepared such that plating and equally spreading 30 μL of each solution will provide the desired amount of CA. To additional two plates, 30 μL of H2O was added.
50 μL of the pre-toxified culture were homogenously spread to each CA-containing plate, 5 h after adding the metal to the culture. The Pb-containing culture was also plated on one of the two H2O-containing plates and was labeled as the negative control. Lastly, 50 μL of the non-toxified culture were platted on the second H2O-containing plate and was labeled as positive control. All plates (positive and negative control and five plates for each examined compound) were then incubated at 37° C. overnight. The plates were then imaged, and the colonies were counted (with Vilber Quantum Visualization System). The recovery of each concentration of CA was calculated according to equation 1: […]
#CAx—number of colonies of pre-toxified culture in a plate containing X mM of CA
#NEG—number of colonies of pre-toxified culture in a plate containing no CA
(§2) Each experiment was performed on three independent occasions. Values are mean±SD of >3 repeats each performed in triplicate.

The test system of data set [1] is HT-29 cells. The experiment in a line: In vitro recovery test: Pb detoxification of poisoned human cells, crystal violet. The following applies: for Recovery HT-29 (%): highest concentration 10 mM (5 equiv.), Pb(NO3)2 2 mM, vs poisoned untreated cells, mean, SD. The data set is classed as cell-based. As for the experimental part:
as §1
96-well plates were prepared such that every well contains 10,000 cells in 100 μL medium, and the cells were allowed to adhere overnight. To all wells but the positive control, 10 μL of 22 mM Pb(NO3)2 were added (final concentration 2 mM). 10 μL of H2O was added to the positive control wells. 60 min after addition of metal, 10 μL of each solution of the examined CA (2.4, 6, 12, 24, 48, and 120 mM) were added to reach final concentrations of 0.2, 0.5, 1, 2, 4, and 10 mM (which are 0.1, 0.25, 0.5, 1, 2, and 5 equivalents, respectively). To the positive control wells containing no metal and the negative control wells containing metal but no CA, 10 μL of H2O were added. Each condition was performed in triplicates. The plates were incubated at 37° C. and 5% CO2 for an additional 23 h, after which the medium was removed, washed with fresh medium and 50 μL of crystal violet solution (0.5% crystal violet powder in 20 mL MeOH and 80 mL H2O) to each well and the plates were gently shaken (60 rpm) for 20 min. The plates were then washed with H2O until no more unbound dye was observed and allowed to dry overnight. 200 μL of MeOH were added to each well, and the plates were gently shaken (60 rpm) for 20 min, after which their absorbance at 560 nm was read with a plate reader. The recovery of each concentration of CA was calculated according to equation 2:
(§3) A[CAx]—absorbance of the pre-toxified well in the presence of X mM of CA
(§4) A[blank]—absorbance of blank wells (contain nothing)
A[NEG]—absorbance of the pre-toxified well that contains no CA
as §2

Data set [2] concerns HT-29 cells. The experiment in a line: In vitro toxicity test, crystal violet. The data set is classed as cell-based, human. The following applies: HT-29, 24 h; for IC50: concentration at 50% viability, mean (SD), n.d. = not detected as it is too high; for inhibition at 10000 µM / Toxicity Maximal inhibition (%): inhibition at the highest concentration (10 mM), mean, SD; for inhibition at 10000 µM: read-out: Toxicity Maximal inhibition (%). As for the experimental part:
96-well plates were prepared such that every well contains 10,000 cells in 100 μL medium, and the cells were allowed to adhere overnight.
To all wells but the positive control, 10 μL of each solution of the examined CA (2.4, 6, 12, 24, 48, and 120 mM) were added to reach final concentrations of 0.2, 0.5, 1, 2, 4, and 10 mM. To the positive control wells, 10 μL of H2O was added. Each condition was performed in triplicates. The plates were incubated at 37° C. and 5% CO2 for 24 h, after which the medium was removed, washed with fresh medium and 50 μL of crystal violet solution (0.5% crystal violet powder in 20 mL MeOH and 80 mL H2O) to each well and the plates were gently shaken (60 rpm) for 20 min. The plates were then washed with H2O until no more unbound dye was observed and allowed to dry overnight. 200 μL of MeOH were added to each well, and the plates were gently shaken (60 rpm) for 20 min, after which their absorbance at 560 nm was read with a plate reader. The toxicity of each concentration of CA was calculated according to equation 3:
as §3, §4
A[POS]—absorbance of well that contains no CA
as §2

A further data set relates to male mice (C57BL/6). The experiment in a line: Pb-poisoned mice: blood lead level and urinary Pb by ICP-MS. The data set is classed as in vivo. The note with it: 30 mg kg^−1 day^−1, days 10-16; for BLL: blood on day 18, eight mice; for Urinary Pb (ppm): urine on day 18. How it is done:
Peptide 8a was then tested in mice. 40 male mice (C57BL/6) aged 6-8 weeks were provided with 20 mM Pb(OAc)2 solution as the sole water supply for seven days (days 1-7). This poisoning route mimics chronic exposure in humans. Two days after returning to clean water (day 9), they were randomly divided into five groups of eight mice. They received a single treatment per day for seven days (days 10-16) of either CaNa2EDTA, DMSA, or 8a at a concentration of 30 mg kg^−1 except for group 1 that served as the negative control (Table 3).
Blood samples (100 μL) were collected before dosing the mice on days 10-15 and on day 18, which is two days after the last dosing and the day by which the experiment was terminated. Urine was also collected from 34 animals on day 18 and was kept frozen until analysis.

Data set [3] is described as follows: Aqueous solubility of the peptides. The data set is classed as physicochemical. The note with it: for Aqueous solubility: soluble^b = with the addition of 2 equiv. NaOH or 1 equiv. of Ca(OH)2. From the text:
Attempts to solubilize them, including in different pH conditions, formulation with PEG or co-solvent systems with DMSO failed. Therefore, two analogs of 1 where βAla is substituted by PAsp or PhGlu, to form peptides 1a and 1b, respectively, were synthesized. […] Their low activity might be related to either (a) competition in coordination with Pb^2+ by the two carboxylates, which destabilizes the complexation, or (b) a decrease in their metal selectivity and coordination alkali or alkaline earth metal ions.

Where “and” joins values, the source holds several entries; their conditions need not be identical. Equal values may be shown once. Numbered stars: 1 amine (or outer) side, 2 acyl side, 3 side chain; on linkers, the order of the positions; unused ones are H or OH. Square brackets hold non-standard residues; d marks the D form. Ends that are not written are not given here. βAsp = O=C(O)[C@H](CC(=O)[*:2])N[*:1]

Regarding `O=C(O)C(S)C(S)C(=O)O` (stereo not shown) [DMSA, dimercaptosuccinic acid], the “Recovery DH5α (%)” value with DH5α E. coli is given as 165%. Besides, the “Recovery HT-29 (%)” value with HT-29 cells [1] is 110±10% and 110%. For the same compound, in the data set on HT-29 cells [2] (Homo sapiens), it took 3.7 mM to reach half-maximal inhibition (IC50) and the inhibition at 10000 µM amounted to 77%. Further, in the data set with male mice (C57BL/6) (Oral), the “BLL” value is 23.3 ± 2.3 µg/dL and the “Urinary Pb (ppm)” value was determined as 340 ± 28 ppm.
In the case of `N[C@@H](CCC(=O)N[C@@H](CS)C(=O)NCC(=O)O)C(=O)O` [GSH, glutathione], in the data set with DH5α E. coli, the “Recovery DH5α (%)” value is 39%. Besides, the “Recovery HT-29 (%)” value with HT-29 cells [1] is 126%. In addition, in the data set with HT-29 cells [2] (Homo sapiens), half-maximal inhibition (IC50) required 9.6 mM and the inhibition at 10000 µM is 57%.
For `O=C([O-])CN(CCN(CC(=O)[O-])CC(=O)[O-])CC(=O)[O-].[Ca+2].[Na+].[Na+]` [Na2CaEDTA], the “Recovery DH5α (%)” value with DH5α E. coli was 182%. In addition, in the data set on HT-29 cells [1], the “Recovery HT-29 (%)” value was 95±16% and 95%. In the data set on HT-29 cells [2], the IC50 is 3.9 mM and the “Toxicity Maximal inhibition (%)” value was 63%. For the same compound, in the data set on male mice (C57BL/6) (IV), the “BLL” value came to 25.7 ± 1.6 µg/dL and the “Urinary Pb (ppm)” value is on record as 210 ± 30 ppm.
Consider `O=C([O-])CN(CCN(CC(=O)[O-])CC(=O)O)CC(=O)O.[Na+].[Na+]` [Na2EDTA], for which the “Recovery DH5α (%)” value with DH5α E. coli is listed as 107%. Besides, the “Recovery HT-29 (%)” value in the data set on HT-29 cells [1] worked out at 41%. For the same compound, in the data set with HT-29 cells [2], the midpoint of inhibition, the IC50, lay at 0.6 mM and the “Toxicity Maximal inhibition (%)” value worked out at 72%.
As for `O=C1CCNC(=O)[C@H](Cc2c[nH]cn2)NC(=O)CCNC(=O)[C@H](Cc2c[nH]cn2)N1` [compound 4, His-βAla-His-βAla], the “Recovery DH5α (%)” value with DH5α E. coli is listed as 80%. Besides, the “Recovery HT-29 (%)” value with HT-29 cells [1] worked out at 106%. In the data set with HT-29 cells [2], the IC50 was 5.8 mM and the “Toxicity Maximal inhibition (%)” value stood at 62%. Moreover, the Aqueous solubility entry in data set [3] was “Soluble”.
Regarding `O=C(O)C[C@@H]1NC(=O)CCNC(=O)[C@H](CC(=O)O)NC(=O)CCNC1=O` [compound 5, Asp-βAla-Asp-βAla], the “Recovery DH5α (%)” value in the data set on DH5α E. coli worked out at 150%. Also, the “Recovery HT-29 (%)” value with HT-29 cells [1] was determined as 121%. Moreover, the “Toxicity Maximal inhibition (%)” value with HT-29 cells [2] was 44%. Also, in data set [3], the Aqueous solubility result was “soluble^b”.
Regarding “C[βAsp]C[βAsp] (cysteine pairing not given here) [1a]”, in the data set with DH5α E. coli, the “detoxification ability in poisoned E. coli (in words)” value is on record as “unsatisfied” and the “Recovery DH5α (%)” value is listed as 2%. In the data set on HT-29 cells [1], the “Recovery HT-29 (%)” value worked out at 106%. Further, the “Toxicity Maximal inhibition (%)” value with HT-29 cells [2] was 0%. Moreover, the “solubility as Na or Ca salts” value in data set [3] (Na or Ca salts) is reported as “high solubility”. For the same compound, the Aqueous solubility result in data set [3] is “soluble^b”.
With cyc[Cys-βAla-Asp-βAla] [peptide 8], in the data set on DH5α E. coli, the “detoxification ability in poisoned E. coli (in words)” value is given as “outstanding results” and the “Recovery DH5α (%)” value turned out to be 279%. In addition, in the data set with HT-29 cells [1] (HT-29, FIG. 2d), the “effect of the counter cation (Ca vs. Na salt) on detoxification activity” value was “barely affected by the counter cation”. Moreover, the “Toxicity Maximal inhibition (%)” value with HT-29 cells [2] turned out to be 15±5%. Also, the Aqueous solubility result in data set [3] is recorded as “soluble^b”.

The values above are taken from patent publication US20240025946A1, “Cyclic Tetrapeptides and Metal Complexes Thereof” (priority 2020, published 2024).
